ChEMBL document CHEMBL1201862, “PubChem BioAssay data set” (2004)
Calls of active or inactive are those of the source.

Key:
[1] = Luminescence-based cell-based high throughput dose response assay to identify activators of the DAF-12 from the parasite S. stercoralis (ssDAF-12).; assay type: functional
[2] = molecular target: Disintegrin and metalloproteinase domain-containing protein 17 (Homo sapiens, UniProt P78536); assay: exosite inhibitors of ADAM17, dose response, biochemical (AID 743260)
[3] = ADAM10 protease inhibitors, dose response, selectivity assay for ADAM17 exosite inhibitor project, biochemical, FRET peptide substrate, recombinant human ADAM10 (AID 743259);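 also: ADAM10 enzyme cleaving a FRET peptide substrate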
H9c2 = assay: cells; assay type: functional, cell-based; settings: Rattus norvegicus, H9c2, Myocardium
[4] = non-specific cell cytotoxicity, dose response, cytotoxicity control for PAX8 inhibitor project, plate reader, dry powder samples (AID 743021); assay type: functional, cell-based
Paired box protein Pax-8 = Paired box protein Pax-8 (Homo sapiens, UniProt Q06710); assay: inhibitors of PAX8-driven TPO luciferase reporter, dose response, RMG-I cells, cherry-pick (AID 687027); assay type: functional, cell-based;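 also: luciferase reporter driven by Pax8 target thyroperoxidase promoter measured by SteadyGlo luminescence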
cells [5] = assay: cells
[6] = molecular target: T1, Rac GTPase-activating protein 1 (Homo sapiens, UniProt Q9H0H5); assay: MgcRacGAP GTPase-activating activity inhibitors, confirmation, biochemical, ADP Hunter fluorescence, primary and confirmatory (AID 624330); assay type: functional
T1 sequence (Q9H0H5 whole entry): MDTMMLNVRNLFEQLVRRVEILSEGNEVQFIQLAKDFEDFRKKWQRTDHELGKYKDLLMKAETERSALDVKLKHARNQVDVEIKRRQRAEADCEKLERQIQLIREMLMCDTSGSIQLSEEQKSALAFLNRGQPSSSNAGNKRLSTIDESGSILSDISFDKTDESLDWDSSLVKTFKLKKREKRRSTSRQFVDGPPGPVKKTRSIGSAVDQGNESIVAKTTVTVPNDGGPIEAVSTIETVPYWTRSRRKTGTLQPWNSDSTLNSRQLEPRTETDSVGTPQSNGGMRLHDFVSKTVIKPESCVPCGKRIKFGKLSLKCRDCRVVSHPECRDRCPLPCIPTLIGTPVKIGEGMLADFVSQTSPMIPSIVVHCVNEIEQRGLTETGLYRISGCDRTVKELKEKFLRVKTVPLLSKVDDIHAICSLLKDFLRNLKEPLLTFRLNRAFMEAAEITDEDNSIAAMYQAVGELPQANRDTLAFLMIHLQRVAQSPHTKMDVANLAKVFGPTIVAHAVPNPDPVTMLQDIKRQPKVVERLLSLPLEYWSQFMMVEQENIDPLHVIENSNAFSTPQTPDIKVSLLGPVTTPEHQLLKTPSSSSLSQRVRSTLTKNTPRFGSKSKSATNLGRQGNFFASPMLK

[7] = inhibitors of intracellular T. cruzi replication, confirmation, NIH3T3 host cells, beta-gal luminescence (AID 2044); assay type: functional, cell-based;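 also: intracellular parasites grown in NIH/3T3 mouse fibroblasts as host cells; luminescent beta-galactosidase reporter signal from transgenic T. cruzi replicating inside host cells; inhibitors lower the luminescence signal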
[8] = cytotoxicity toward NIH3T3 fibroblasts, dose response, counter-screen, cell-based, ATP luminescence, mouse fibroblasts (AID 2010); assay type: functional;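 also: cells exposed to compound for about 90 hours before reading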
[9] = P. falciparum 3D7-ScDHODH growth inhibitors, dose response, SYBR Green, dry powder samples (AID 1159570); assay type: functional, cell-based;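 also: parasite growth measured after 72 hours of compound exposure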
[10] = HepG2 cell cytotoxicity, dose response, cytotoxicity control, cherry-picked samples (AID 1159577); assay type: functional, cell-based
[11] = P. falciparum Dd2 growth inhibitors, dose response, SYBR Green, cherry-picked samples (AID 1159567); assay type: functional, cell-based
[12] = P. falciparum Dd2 growth inhibitors, dose response, SYBR Green, dry powder samples (AID 1159566); assay type: functional, cell-based;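 also: potency for growth inhibition with lower SYBR green DNA signal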
[13] = P. falciparum ATP4 D1247Y mutant growth inhibitors, dose response, NITD609-resistant line, SYBR Green, dry powder (AID 1159571); assay type: functional, cell-based;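 also: parasites synchronized at ring stage by sorbitol before testing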
[14] = HepG2 cell cytotoxicity, dose response, cytotoxicity control, plate reader, dry powder samples (AID 1159569); assay type: functional, cell-based;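 also: inhibitor potency with signal falling toward the positive control level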
[15] = inhibitors of PGC1a acetylation in cells, dose response, cell-based, cherry-picked samples (AID 720514); assay type: functional;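 also: potency may reflect raised or lowered acetylation signal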
[16] = molecular target: Mitogen-activated protein kinase 10 (Homo sapiens, UniProt P53779); assay: Dose response biochemical screening assay for inhibitors of c-Jun N-Terminal Kinase 3 (JNK3). [Related pubchem assays: 746 ]
Albumin = Albumin (Bos taurus, UniProt P02769); assay: Counterscreen for inhibitors of T-cell receptor (TCR)-CD3 interaction: Fluorescence-based biochemical high throughput dose response assay to identify inhibitors of T-cell receptor (TCR)-CD3 interaction using a TAMRA-labeled BSA probe.; assay type: functional
[17] = molecular target: T2, Zinc finger protein mex-5 (Caenorhabditis elegans, UniProt Q9XUB2); assay: MEX-5/TCR-2 RNA interaction inhibitors, dose response, biochemical, C. elegans, fluorescence polarization (AID 1960)
T2 sequence (Q9XUB2 whole entry): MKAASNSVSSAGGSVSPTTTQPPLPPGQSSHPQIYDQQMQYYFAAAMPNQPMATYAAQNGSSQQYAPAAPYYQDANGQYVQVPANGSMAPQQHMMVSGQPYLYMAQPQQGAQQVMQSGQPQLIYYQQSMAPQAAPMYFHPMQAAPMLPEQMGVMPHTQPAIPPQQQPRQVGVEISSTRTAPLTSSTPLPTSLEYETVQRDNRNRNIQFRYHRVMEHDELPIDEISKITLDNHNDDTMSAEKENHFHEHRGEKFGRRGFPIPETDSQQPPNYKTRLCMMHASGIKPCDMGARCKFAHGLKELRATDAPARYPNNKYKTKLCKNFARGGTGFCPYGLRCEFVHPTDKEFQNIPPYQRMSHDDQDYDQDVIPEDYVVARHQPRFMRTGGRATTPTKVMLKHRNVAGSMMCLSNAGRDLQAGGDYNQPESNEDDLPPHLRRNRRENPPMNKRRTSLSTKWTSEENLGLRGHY

[18] = molecular target: T3, RNA-binding protein pos-1 (Caenorhabditis elegans, UniProt G5EF15); assay: inhibitors of POS-1/mex-3 RNA binding, dose response, biochemical, fluorescence polarization (AID 1964);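 also: purified POS-1 fused to maltose binding protein made in E. coli; potency of compounds blocking POS-1 binding to fluorescent RNA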
T3 sequence (G5EF15 whole entry): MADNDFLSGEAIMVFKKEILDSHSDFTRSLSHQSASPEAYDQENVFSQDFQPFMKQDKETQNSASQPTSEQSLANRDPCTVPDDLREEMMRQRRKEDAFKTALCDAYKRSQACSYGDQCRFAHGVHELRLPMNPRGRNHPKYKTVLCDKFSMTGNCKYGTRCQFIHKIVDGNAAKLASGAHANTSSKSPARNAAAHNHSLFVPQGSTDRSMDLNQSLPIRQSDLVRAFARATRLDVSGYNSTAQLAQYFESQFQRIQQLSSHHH

cells [19] = assay: cells; remark: listed apart in the source
[20] = molecular target: T4, Oxysterols receptor LXR-beta (Homo sapiens, UniProt P55055); assay type: functional, cell-based;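 also: Cell-based luminescence dose-response assay of agonist activity at LXR, run as a confirmatory counterscreen to a daf-12 agonist screen; HEK293 cells with Gal4-LXR fusion and GAL4-driven luciferase reporter; agonist potency from rising luciferase signal of a Gal4-LXR reporter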
T4 sequence (P55055 whole entry): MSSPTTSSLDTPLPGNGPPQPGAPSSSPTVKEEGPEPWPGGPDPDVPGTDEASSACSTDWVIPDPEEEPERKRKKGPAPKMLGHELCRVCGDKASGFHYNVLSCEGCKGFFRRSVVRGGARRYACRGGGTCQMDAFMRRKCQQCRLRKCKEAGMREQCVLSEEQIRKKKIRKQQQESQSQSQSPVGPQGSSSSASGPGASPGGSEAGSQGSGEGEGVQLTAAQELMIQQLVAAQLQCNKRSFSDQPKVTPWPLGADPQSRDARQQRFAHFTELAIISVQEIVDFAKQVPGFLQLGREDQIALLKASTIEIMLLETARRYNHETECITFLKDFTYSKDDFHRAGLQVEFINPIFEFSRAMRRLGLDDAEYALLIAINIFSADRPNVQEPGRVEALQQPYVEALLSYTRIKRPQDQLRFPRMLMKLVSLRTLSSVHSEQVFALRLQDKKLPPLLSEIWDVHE

[21] = microbe, parasite or virus in culture; assay type: functional; settings: Mycobacterium tuberculosis
[22] = inhibitors of SNCA 5'UTR-driven reporter translation, confirmation, H4 neuroglioma cells, luminescence (AID 1988); assay type: functional, cell-based
[23] = Luminescence Cell-Based Dose Response HTS to Identify Inhibitors of 5'UTR Stem-Loop Driven Prion Protein mRNA Translation in H4 Neuroglioblastoma Cells. [Related pubchem assays: 1827 (Project Summary), 1813 (Primary HTS)]; assay type: functional

Chain of Disintegrin and metalloproteinase domain-containing protein 17 (P78536 whole entry, the tested form may be a part): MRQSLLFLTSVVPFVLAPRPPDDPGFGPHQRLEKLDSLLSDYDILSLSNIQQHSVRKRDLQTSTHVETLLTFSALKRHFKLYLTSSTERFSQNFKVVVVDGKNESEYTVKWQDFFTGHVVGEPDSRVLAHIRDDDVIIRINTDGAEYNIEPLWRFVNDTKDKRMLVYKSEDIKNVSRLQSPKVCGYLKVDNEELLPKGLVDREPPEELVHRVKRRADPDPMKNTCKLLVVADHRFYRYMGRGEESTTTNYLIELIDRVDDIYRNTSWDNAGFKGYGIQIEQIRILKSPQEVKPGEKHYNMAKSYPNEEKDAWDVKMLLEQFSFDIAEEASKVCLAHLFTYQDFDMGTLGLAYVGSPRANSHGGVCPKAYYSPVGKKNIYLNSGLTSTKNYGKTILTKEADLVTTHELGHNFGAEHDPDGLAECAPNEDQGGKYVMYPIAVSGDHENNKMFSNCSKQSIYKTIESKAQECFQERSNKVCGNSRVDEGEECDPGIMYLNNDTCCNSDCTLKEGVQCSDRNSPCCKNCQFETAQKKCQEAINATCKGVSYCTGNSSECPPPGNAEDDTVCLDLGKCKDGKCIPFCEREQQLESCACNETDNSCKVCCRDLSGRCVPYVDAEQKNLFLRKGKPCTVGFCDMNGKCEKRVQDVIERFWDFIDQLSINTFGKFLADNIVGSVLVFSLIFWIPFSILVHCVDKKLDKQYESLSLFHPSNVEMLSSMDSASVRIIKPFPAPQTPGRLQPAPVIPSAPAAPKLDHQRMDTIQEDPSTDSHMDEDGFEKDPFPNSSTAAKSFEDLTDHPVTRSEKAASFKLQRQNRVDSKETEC
Chain of Albumin (P02769 whole entry): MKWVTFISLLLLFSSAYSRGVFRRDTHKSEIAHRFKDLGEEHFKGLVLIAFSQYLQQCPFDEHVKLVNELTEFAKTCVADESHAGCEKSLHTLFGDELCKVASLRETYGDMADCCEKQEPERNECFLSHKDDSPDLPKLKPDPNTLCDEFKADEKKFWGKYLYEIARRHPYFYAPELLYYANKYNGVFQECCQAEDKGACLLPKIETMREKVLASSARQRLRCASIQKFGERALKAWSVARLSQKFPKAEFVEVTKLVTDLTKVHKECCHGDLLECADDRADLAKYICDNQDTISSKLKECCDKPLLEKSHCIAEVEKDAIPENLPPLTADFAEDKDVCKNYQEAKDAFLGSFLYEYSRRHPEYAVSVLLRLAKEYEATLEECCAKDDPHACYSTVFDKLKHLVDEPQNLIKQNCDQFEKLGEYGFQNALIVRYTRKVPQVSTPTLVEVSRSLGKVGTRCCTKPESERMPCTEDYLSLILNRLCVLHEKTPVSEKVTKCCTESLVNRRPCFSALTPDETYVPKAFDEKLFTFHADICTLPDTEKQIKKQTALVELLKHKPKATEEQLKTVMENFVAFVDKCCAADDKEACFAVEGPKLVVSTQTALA
Chain of Mitogen-activated protein kinase 10 (P53779 whole entry): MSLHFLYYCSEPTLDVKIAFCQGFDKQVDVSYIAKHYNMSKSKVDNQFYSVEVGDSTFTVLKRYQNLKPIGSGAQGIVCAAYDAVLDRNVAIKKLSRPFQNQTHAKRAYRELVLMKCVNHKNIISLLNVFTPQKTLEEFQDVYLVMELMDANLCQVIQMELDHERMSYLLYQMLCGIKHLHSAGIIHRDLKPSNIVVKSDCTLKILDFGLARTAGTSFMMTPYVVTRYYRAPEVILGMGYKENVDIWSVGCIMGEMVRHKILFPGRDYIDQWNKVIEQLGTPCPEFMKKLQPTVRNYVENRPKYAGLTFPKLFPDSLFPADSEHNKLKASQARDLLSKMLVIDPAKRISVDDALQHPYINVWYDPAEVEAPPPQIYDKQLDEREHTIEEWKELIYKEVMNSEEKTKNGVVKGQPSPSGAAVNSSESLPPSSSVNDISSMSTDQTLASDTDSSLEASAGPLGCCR
Chain of Paired box protein Pax-8 (Q06710 whole entry): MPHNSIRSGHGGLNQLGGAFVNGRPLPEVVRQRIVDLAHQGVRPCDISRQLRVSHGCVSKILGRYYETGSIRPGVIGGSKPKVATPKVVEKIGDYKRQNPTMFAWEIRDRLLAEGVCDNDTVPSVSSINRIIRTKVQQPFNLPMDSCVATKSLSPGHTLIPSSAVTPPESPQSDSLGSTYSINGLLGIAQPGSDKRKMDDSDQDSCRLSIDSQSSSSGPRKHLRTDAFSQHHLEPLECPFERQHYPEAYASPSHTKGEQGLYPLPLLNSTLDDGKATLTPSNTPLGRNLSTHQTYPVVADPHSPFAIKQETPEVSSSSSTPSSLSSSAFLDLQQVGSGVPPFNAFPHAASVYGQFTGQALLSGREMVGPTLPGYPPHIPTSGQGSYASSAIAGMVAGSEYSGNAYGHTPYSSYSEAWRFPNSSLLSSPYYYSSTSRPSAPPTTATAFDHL

## CC(=O)Nc1sc2c(c1-c1nc3ccccc3s1)CCCN(C(C)C)C2
[1]
  IC50: > 67.5 µM (inactive)

## Cc1ccc(NC(=O)COC(=O)/C(=C/c2cccs2)c2cccs2)cc1S(=O)(=O)N(C)C
[2]
  IC50: > 69.5 µM (inactive)
[3]
  IC50: > 69.5 µM (inactive)

## CCC(c1nnnn1Cc1ccccc1)N1CCC(n2c(O)nc3ccccc32)CC1 (stereo not drawn)
H9c2
  IC50: > 79 µM (inactive)
[4]
  AC50: 41.4 µM (active)
Paired box protein Pax-8
  AC50: 3.8 µM (active)

## Cc1cc(Cl)c(OCCOCCN2CCN(C)CC2)c(Br)c1
Cells [5]
  EC50: 0.294 µM (active)
[6]
  IC50: 63.9 µM (active)
[7]
  EC50: < 0.1 µM (active)
[8]
  EC50: > 60 µM (not active)

## O=C1c2cccc(OCC(=O)N3CCCc4ccccc43)c2CCN1Cc1ccc(Br)cc1
[2]
  IC50: > 69.5 µM (inactive)
[3]
  IC50: > 69.5 µM (inactive)

## COc1ccc2c3c(n(C)c2c1)[C@H](CO)NCC31CCN(CC2CCCC2)CC1
[9]
  AC50: 0.449 µM (active)
[10]
  AC50: 35.5 µM (active)
[11]
  AC50: 0.738 µM (active)
[12]
  AC50: 0.481 µM (active)
[13]
  AC50: 0.425 µM (active)
[14]
  AC50: 46.3 µM (active)

## C[C@@H]1CN([C@@H](C)CO)C(=O)c2c(c3ccccc3n2C)-c2ccccc2CO[C@H]1CN(C)S(=O)(=O)c1ccsc1
[15]
  AC50: 29.2 µM (active)

## O=C(NC(=S)Nc1ccc2c(c1)OCCO2)c1cccc2ccccc12
[2]
  IC50: > 69.5 µM (inactive)
[3]
  IC50: > 69.5 µM (inactive)

## COc1ccccc1S(=O)(=O)N(C)C[C@@H]1Oc2cc(C#CCC3CCCC3)ccc2S(=O)(=O)N([C@H](C)CO)C[C@H]1C
[9]
  AC50: 0.227 µM (active)
[10]
  AC50: 28.6 µM (active)
[11]
  AC50: 0.309 µM (active)
[12]
  AC50: 0.146 µM (active)
[13]
  AC50: 0.104 µM (active)
[14]
  AC50: 23.8 µM (active)

## COc1cccc2c(O)c(C/C=C(/C)Cl)c(C)nc12
[16]
  IC50: 75 µM (not active)

## C[C@@H]1CN([C@@H](C)CO)S(=O)(=O)c2ccc(/C=C/c3ccccc3)cc2O[C@H]1CN(C)C(=O)c1ccc2c(c1)OCO2
[9]
  AC50: 2.96 µM (active)
[11]
  AC50: 2.43 µM (active)
[12]
  AC50: 2.09 µM (active)
[13]
  AC50: 1.18 µM (active)
[14]
  AC50: 87.3 µM (active)

## COC(=O)c1nn(-c2ccccc2)ccc1=O
[15]
  AC50: 5.56 µM (active)

## Cc1ccc(O)c(-c2cc(C(=O)Nc3ccc(S(=O)(=O)Nc4nccc(C)n4)cc3)[nH]n2)c1
Albumin
  IC50: > 94.1 µM (inactive)
[17]
  EC50: 6.59 µM (active)
[18]
  EC50: 13.1 µM (inconclusive)

## Cc1ccc(-c2nnc(-c3cccc4ccccc34)o2)cc1
Cells [19]
  EC50: > 67.5 µM (inactive)
[20]
  EC50: > 67.5 µM (inactive)

## CC1(c2ccccc2)CC(C)(C)N(C(=O)c2cc([N+](=O)[O-])cc([N+](=O)[O-])c2)c2ccccc21 (stereo not drawn)
Cells [5]
  EC50: 0.214 µM (active)
[7]
  EC50: < 0.1 µM (active)
[8]
  EC50: 5.58 µM (active)

## O=C(NNC(=O)c1cc(Cl)ccc1O)c1cccc(S(=O)(=O)N2CCOCC2)c1
Albumin
  IC50: > 94.1 µM (inactive)
[17]
  EC50: 11.6 µM (active)
[18]
  EC50: 18.7 µM (inconclusive)

## CCc1ccc(-n2nc3cc(C)c(N)cc3n2)cc1
Cells [19]
  EC50: > 67.5 µM (inactive)
[21]
  CC50: > 40 µM (active)
[20]
  EC50: > 67.5 µM (inactive)
[1]
  IC50: > 67.5 µM (inactive)

## Cc1ccc2c(c1)s/c(=N/C(=O)c1cccs1)n2C
Cells [19]
  EC50: > 67.6 µM (inactive)
[20]
  EC50: > 67.6 µM (inactive)
[22]
  EC50: 4.79 µM (active)
[23]
  EC50: 4.15 µM (active)
